The text below walks through data of BigSolDB 2.1.

In general, solubility (mole fraction) refers to the moles of solute divided by all moles in the saturated solution.

As to `CCc1ccc(N=C2SCC3CCCN2C3)cc1` (stereo not given), the solubility (mole fraction) reads like this: (in n-hexane, 293.15 K) 0.000225; (in n-hexane, 298.15 K) 0.000289; (in n-hexane, 303.15 K) 0.000382; (in n-hexane, 310.15 K) 0.000537; (in n-hexane, 315.15 K) 0.000673; (in n-octanol, 293.15 K) 0.0124. Besides, the solubility (mole fraction) by setting is: (in n-octanol, 298.15 K) 0.0139; (in n-octanol, 303.15 K) 0.0163; (in n-octanol, 310.15 K) 0.0194; (in n-octanol, 315.15 K) 0.0224.
As to `Cc1ccc(N=C2SCC3CCCN2C3)cc1Cl` (stereo not given), the solubility (mole fraction) runs as follows: (in n-hexane, 293.15 K) 7.1e-05; (in n-hexane, 298.15 K) 8.71e-05; (in n-hexane, 303.15 K) 0.000106; (in n-hexane, 310.15 K) 0.000134; (in n-hexane, 315.15 K) 0.000161; (in n-octanol, 293.15 K) 0.00305. Besides, the solubility (mole fraction) runs as follows: (in n-octanol, 298.15 K) 0.00377; (in n-octanol, 303.15 K) 0.00454; (in n-octanol, 310.15 K) 0.00605; (in n-octanol, 315.15 K) 0.00736.
`N#Cc1ccc(N=C2SCC3CCCN2C3)cc1` (stereo not given): the solubility (mole fraction) runs as follows: (in n-hexane, 293.15 K) 0.000223; (in n-hexane, 298.15 K) 0.000271; (in n-hexane, 303.15 K) 0.000337; (in n-hexane, 310.15 K) 0.000422; (in n-hexane, 315.15 K) 0.000523; (in n-octanol, 293.15 K) 0.0087. Also, the solubility (mole fraction) reads like this: (in n-octanol, 298.15 K) 0.0107; (in n-octanol, 303.15 K) 0.0131; (in n-octanol, 310.15 K) 0.0166; (in n-octanol, 315.15 K) 0.0202.
In the case of `FC(F)(F)c1ccc(N=C2SCC3CCCN2C3)cc1` (stereo not given), the solubility (mole fraction) is, setting by setting: (in n-hexane, 293.15 K) 0.000248; (in n-hexane, 298.15 K) 0.000286; (in n-hexane, 303.15 K) 0.000339; (in n-hexane, 310.15 K) 0.000402; (in n-hexane, 315.15 K) 0.00046; (in n-octanol, 293.15 K) 0.0118. Moreover, the solubility (mole fraction) is 0.0132 (in n-octanol, 298.15 K); 0.0146 (in n-octanol, 303.15 K); 0.0171 (in n-octanol, 310.15 K); 0.0189 (in n-octanol, 315.15 K).
For `Fc1ccc(N=C2SCC3CCCN2C3)cc1` (stereo not given), the solubility (mole fraction) reads like this: (in n-hexane, 293.15 K) 0.0015; (in n-hexane, 298.15 K) 0.00187; (in n-hexane, 303.15 K) 0.00224; (in n-hexane, 310.15 K) 0.00294; (in n-hexane, 315.15 K) 0.00359; (in n-octanol, 293.15 K) 0.0245. The compound also displayed a solubility (mole fraction) (in n-octanol, 298.15 K) of 0.0296; a solubility (mole fraction) (in n-octanol, 303.15 K) of 0.0354; a solubility (mole fraction) (in n-octanol, 310.15 K) of 0.0469; a solubility (mole fraction) (in n-octanol, 315.15 K) of 0.0567.
As for `CC(C)c1ccc(N=C2SCC3CCCN2C3)cc1` (stereo not given), the solubility (mole fraction) was 0.00135 (in n-hexane, 293.15 K); 0.00158 (in n-hexane, 298.15 K); 0.00195 (in n-hexane, 303.15 K); 0.00246 (in n-hexane, 310.15 K); 0.00288 (in n-hexane, 315.15 K); 0.143 (in n-octanol, 293.15 K). Besides, the solubility (mole fraction) (in n-octanol, 298.15 K) worked out at 0.154; the solubility (mole fraction) (in n-octanol, 303.15 K) was 0.164; the solubility (mole fraction) (in n-octanol, 310.15 K) turned out to be 0.182; the solubility (mole fraction) (in n-octanol, 315.15 K) was determined as 0.194.
In the case of `Cc1ccc(N=C2SCC3CCCN2C3)cc1` (stereo not given), the solubility (mole fraction) stood at 0.0033 (in n-hexane, 293.15 K); 0.00465 (in n-hexane, 298.15 K); 0.00654 (in n-hexane, 303.15 K); 0.0104 (in n-hexane, 310.15 K); 0.0135 (in n-hexane, 315.15 K); 0.145 (in n-octanol, 293.15 K). Moreover, the solubility (mole fraction) by setting is: (in n-octanol, 298.15 K) 0.157; (in n-octanol, 303.15 K) 0.171; (in n-octanol, 310.15 K) 0.193; (in n-octanol, 315.15 K) 0.209.
For the compound `CC(=O)c1ccc(N=C2SCC3CCCN2C3)cc1` (stereo not given), the solubility (mole fraction) amounted to 0.000144 (in n-hexane, 293.15 K); 0.000176 (in n-hexane, 298.15 K); 0.000215 (in n-hexane, 303.15 K); 0.00028 (in n-hexane, 310.15 K); 0.000344 (in n-hexane, 315.15 K); 0.0075 (in n-octanol, 293.15 K). For the same compound, the solubility (mole fraction) runs as follows: (in n-octanol, 298.15 K) 0.0093; (in n-octanol, 303.15 K) 0.0118; (in n-octanol, 310.15 K) 0.0156; (in n-octanol, 315.15 K) 0.0202.
